Experimental data: ChEMBL document CHEMBL1201862, “PubChem BioAssay data set” (2004)
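48-hour exposure; five concentrations; linearly interpolated endpoints. GI50 is the concentration that inhibits growth by half.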 Calls of active or inactive are those of the source. No stated cut-off is given here; in the data, active = GI50 up to about 1.1 µM and inactive = higher.

Assays:
Test in all cases: DTP human tumour cell line panel, 48 h
DU-145 = tested on: DU-145
MDA-MB-231 = tested on: MDA-MB-231
HOP-92 = tested on: HOP-92
UO-31 = tested on: UO-31
HL-60 = tested on: HL-60
OVCAR-4 = tested on: OVCAR-4
MDA-MB-435 = tested on: MDA-MB-435
SF-295 = tested on: SF-295
CCRF-CEM = tested on: CCRF-CEM
NCI/ADR-RES = tested on: NCI/ADR-RES
SR = tested on: SR
PC-3 = tested on: PC-3
COLO 205 = tested on: COLO 205
SW-620 = tested on: SW-620
T47D = tested on: T47D
MDA-N = tested on: MDA-N
HCT-116 = tested on: HCT-116
SNB-19 = tested on: SNB-19
SF-539 = tested on: SF-539
NCI-H460 = tested on: NCI-H460
A498 = tested on: A498
HOP-62 = tested on: HOP-62
A549 = tested on: A549
CAKI-1 = tested on: CAKI-1
HT-29 = tested on: HT-29
KM12 = tested on: KM12
K562 = tested on: K562
OVCAR-3 = tested on: OVCAR-3
EKVX = tested on: EKVX
TK-10 = tested on: TK-10
RXF 393 = tested on: RXF 393
SK-OV-3 = tested on: SK-OV-3
SN12C = tested on: SN12C
Malme-3M = tested on: Malme-3M
HCT-15 = tested on: HCT-15
SF-268 = tested on: SF-268
LOX IMVI = tested on: LOX IMVI
NCI-H226 = tested on: NCI-H226
UACC-257 = tested on: UACC-257
Hs-578T = tested on: Hs-578T
MOLT-4 = tested on: MOLT-4
U-251 = tested on: U-251
SK-MEL-28 = tested on: SK-MEL-28
786-0 = tested on: 786-0
UACC-62 = tested on: UACC-62
RPMI-8226 = tested on: RPMI-8226
M14 = tested on: M14
MCF7 = tested on: MCF7
NCI-H23 = tested on: NCI-H23
SK-MEL-2 = tested on: SK-MEL-2
ACHN = tested on: ACHN
SK-MEL-5 = tested on: SK-MEL-5
OVCAR-5 = tested on: OVCAR-5
SNB-75 = tested on: SNB-75
OVCAR-8 = tested on: OVCAR-8
HCC 2998 = tested on: HCC 2998

`O=C1CSC(c2cccc(Cl)c2)N1c1c(O)c(Cl)cc(Br)c1Cl` (stereo unspecified) was tested, and the GI50 (DU-145) was > 100 µM (inactive), the GI50 (MDA-MB-231) was 14 µM (inactive) and the GI50 (HOP-92) was 15.1 µM (inactive). For the same compound, the GI50 (UO-31) was 15.6 µM (inactive), the GI50 (HL-60) was 25.8 µM (inactive) and the GI50 (OVCAR-4) was 14.9 µM (inactive). The GI50 (MDA-MB-435) was 17.1 µM (inactive), the GI50 (SF-295) was > 100 µM (inactive) and the GI50 (CCRF-CEM) was 19.8 µM (inactive). For the same compound, the GI50 (NCI/ADR-RES) was 71 µM (inactive), the GI50 (SR) was 24.8 µM (inactive) and the GI50 (PC-3) was 36.1 µM (inactive). For the same compound, the GI50 (COLO 205) was 23.5 µM (inactive), the GI50 (SW-620) was 17.2 µM (inactive) and the GI50 (T47D) was 17.1 µM (inactive). The GI50 (MDA-N) was 17.1 µM (inactive), the GI50 (HCT-116) was 15.1 µM (inactive) and the GI50 (SNB-19) was > 100 µM (inactive). For the same compound, the GI50 (SF-539) was 28.8 µM (inactive), the GI50 (NCI-H460) was > 100 µM (inactive) and the GI50 (A498) was > 100 µM (inactive). The GI50 (HOP-62) was > 100 µM (inactive), the GI50 (A549) was 53.3 µM (inactive) and the GI50 (CAKI-1) was > 100 µM (inactive). The GI50 (HT-29) was > 100 µM (inactive), the GI50 (KM12) was 34 µM (inactive) and the GI50 (K562) was 45.2 µM (inactive). For the same compound, the GI50 (OVCAR-3) was 16.9 µM (inactive), the GI50 (EKVX) was > 100 µM (inactive) and the GI50 (TK-10) was 83.4 µM (inactive). For the same compound, the GI50 (RXF 393) was 16.7 µM (inactive), the GI50 (SK-OV-3) was > 100 µM (inactive) and the GI50 (SN12C) was 58.5 µM (inactive). The GI50 (Malme-3M) was > 100 µM (inactive), the GI50 (HCT-15) was 15 µM and the GI50 (SF-268) was 57.8 µM (inactive). For the same compound, the GI50 (LOX IMVI) was 16.3 µM (inactive), the GI50 (NCI-H226) was 30.2 µM (inactive) and the GI50 (UACC-257) was 22.4 µM (inactive). For the same compound, the GI50 (Hs-578T) was 29.8 µM (inactive), the GI50 (MOLT-4) was 23.6 µM (inactive) and the GI50 (U-251) was 25.5 µM (inactive). For the same compound, the GI50 (SK-MEL-28) was > 100 µM (inactive), the GI50 (786-0) was 25.5 µM (inactive) and the GI50 (UACC-62) was 22.6 µM (inactive). The GI50 (RPMI-8226) was 15.9 µM (inactive), the GI50 (M14) was > 100 µM (inactive) and the GI50 (MCF7) was 15.6 µM (inactive). For the same compound, the GI50 (NCI-H23) was 27.7 µM (inactive), the GI50 (SK-MEL-2) was 14.9 µM (inactive) and the GI50 (ACHN) was 14.8 µM (inactive). For the same compound, the GI50 (SK-MEL-5) was 27.3 µM (inactive), the GI50 (OVCAR-5) was > 100 µM (inactive) and the GI50 (SNB-75) was 29.4 µM (inactive).
In the case of `C=CC(C)(C)C1(CC(OC)OC)C(=O)N(C)c2ccccc21` (stereo unspecified), the GI50 (DU-145) is reported as > 25 µM (inactive), the GI50 (MDA-MB-231) is reported as > 25 µM (inactive) and the GI50 (HOP-92) is reported as > 25 µM (inactive). For the same compound, the GI50 (UO-31) was > 25 µM (inactive), the GI50 (OVCAR-8) was > 25 µM (inactive) and the GI50 (HL-60) was > 25 µM (inactive). The GI50 (OVCAR-4) was > 25 µM (inactive), the GI50 (MDA-MB-435) was > 25 µM (inactive) and the GI50 (SF-295) was > 25 µM (inactive). For the same compound, the GI50 (CCRF-CEM) was > 25 µM (inactive), the GI50 (NCI/ADR-RES) was > 25 µM (inactive) and the GI50 (SR) was > 25 µM (inactive). For the same compound, the GI50 (PC-3) was > 25 µM (inactive), the GI50 (HCC 2998) was > 25 µM (inactive) and the GI50 (COLO 205) was > 25 µM (inactive). The GI50 (SW-620) was > 25 µM (inactive), the GI50 (T47D) was > 25 µM (inactive) and the GI50 (MDA-N) was > 25 µM (inactive). The GI50 (HCT-116) was > 25 µM (inactive), the GI50 (SNB-19) was > 25 µM (inactive) and the GI50 (NCI-H460) was > 25 µM (inactive). For the same compound, the GI50 (A498) was > 25 µM (inactive), the GI50 (HOP-62) was > 25 µM (inactive) and the GI50 (A549) was > 25 µM (inactive). The GI50 (CAKI-1) was > 25 µM (inactive), the GI50 (HT-29) was > 25 µM (inactive) and the GI50 (KM12) was > 25 µM (inactive). The GI50 (K562) was > 25 µM (inactive), the GI50 (OVCAR-3) was > 25 µM (inactive) and the GI50 (EKVX) was > 25 µM (inactive). For the same compound, the GI50 (RXF 393) was > 25 µM (inactive), the GI50 (SK-OV-3) was > 25 µM (inactive) and the GI50 (SN12C) was > 25 µM (inactive). For the same compound, the GI50 (HCT-15) was greater than 25 µM, the GI50 (SF-268) was > 25 µM (inactive) and the GI50 (LOX IMVI) was > 25 µM (inactive). For the same compound, the GI50 (NCI-H226) was > 25 µM (inactive), the GI50 (UACC-257) was > 25 µM (inactive) and the GI50 (Hs-578T) was > 25 µM (inactive). The GI50 (U-251) was > 25 µM (inactive), the GI50 (SK-MEL-28) was > 25 µM (inactive) and the GI50 (786-0) was > 25 µM (inactive). For the same compound, the GI50 (UACC-62) was > 25 µM (inactive), the GI50 (RPMI-8226) was > 25 µM (inactive) and the GI50 (M14) was > 25 µM (inactive). The GI50 (MCF7) was > 25 µM (inactive), the GI50 (NCI-H23) was > 25 µM (inactive) and the GI50 (SK-MEL-2) was > 25 µM (inactive). The GI50 (ACHN) was > 25 µM (inactive), the GI50 (SK-MEL-5) was > 25 µM (inactive) and the GI50 (OVCAR-5) was > 25 µM (inactive). The GI50 (SNB-75) was > 25 µM (inactive).
